Experimental data from patent US11767322B2 (BRISTOL-MYERS SQUIBB COMPANY, priority 2020, dated 2023).
Where two headings read alike, the source gives them in different places.

Experiments:
[1] = target: T1, His-GST-TVMV-hRIPK1(1-324) (Homo sapiens, UniProt Q13546); assay: biochemical; format: binding
T1 construct: The coding region of human RIPK1(1-324) flanked by NdeI site at 5′ end; made in house; host or cells: Spodoptera frugiperda Sf9 insect cells (baculovirus, Bac-to-Bac)
T1 sequence (Q13546 1-324): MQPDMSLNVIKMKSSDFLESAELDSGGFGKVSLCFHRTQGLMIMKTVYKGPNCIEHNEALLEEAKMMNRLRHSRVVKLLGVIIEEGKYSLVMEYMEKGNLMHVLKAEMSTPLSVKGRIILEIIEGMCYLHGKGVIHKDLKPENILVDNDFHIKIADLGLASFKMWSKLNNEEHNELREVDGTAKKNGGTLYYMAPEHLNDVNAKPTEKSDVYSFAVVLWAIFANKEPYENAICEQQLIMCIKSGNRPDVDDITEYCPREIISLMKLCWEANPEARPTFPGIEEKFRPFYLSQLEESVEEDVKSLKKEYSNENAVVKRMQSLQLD

[2] = system: MLKL phosphorylation in HT29-L23 human colorectal adenocarcinoma cells; assay: MLKL phosphorylation high-content assay; format: cell-based
[3] = HTRF probe displacement, 1 h at rt, read-out: RIPK1 IC50
[4] = Homo sapiens, 6 h, read-out: pMLKL IC50, HT29-L23 cells, necroptosis induced with TNFα, SMAC mimetic and Z-VAD, 6 h, maximal inhibition defined by Nec1s
[5] = read-out: pMLKL IC50, HT29-L23 cells, necroptosis induced with TNFα, SMAC mimetic and Z-VAD, 6 h, maximal inhibition defined by Nec1s
[6] = Table 22, compounds of the present invention, read-out: RPIK1 IC50
[7] = Homo sapiens, read-out: pMLKL IC50, Table 22, compounds of the present invention

`Cc1ccc(-c2ccn3nc(N)nc3c2)c(F)c1C(=O)NCC(F)(F)C(O)(c1ccc(F)cc1)C(F)F` (centres unmarked) [Example 274, 3-(2-amino-[1,2,4]triazolo[1,5-a]pyridin-7-yl)-2-fluoro-6-methyl-N-(2,2,4,4-tetrafluoro-3-(4-fluorophenyl)-3-hydroxybutyl)benzamide] was tested, and the IC50 [1, 3] was 19 nM and the IC50 [2, 4] was 0.7 nM.

For `[2H]C(O)(c1ccc(C(F)F)cc1)C(F)(F)CNC(=O)c1c(Cl)ccc(-c2ccn3nc(N)nc3c2)c1F` (single isomer, unassigned) [Example 311, 3-(2-amino-[1,2,4]triazolo[1,5-a]pyridin-7-yl)-6-chloro-N-(3-(4-(difluoromethyl)phenyl)-2,2-difluoro-3-hydroxypropyl-3-d)-2-fluorobenzamide], the IC50 [1, 3] was 5 nM and the IC50 [2, 4] was 0.8 nM.

In the case of `[2H]C([2H])([2H])c1ccc(-c2ccn3nc(N)nc3c2)c(F)c1C(=O)NCC(F)(F)C(C)(O)c1ccc(Cl)cc1` (single isomer, unassigned) [Example 252, 3-(2-amino-[1,2,4]triazolo[1,5-a]pyridin-7-yl)-N-(3-(4-chlorophenyl)-2,2-difluoro-3-hydroxybutyl)-2-fluoro-6-(methyl-d3)benzamide], the IC50 [1, 3] is reported as 7.2 nM and the IC50 [2, 5] is reported as 2.7 nM.

`Nc1nc2cc(-c3ccc(Cl)c(C(=O)NCC(F)(F)C(O)c4cc(Cl)ccc4F)c3F)ccn2n1` (centres unmarked) [Example 181, 3-(2-amino-[1,2,4]triazolo[1,5-a]pryidin-7-yl)-6-chloro-N-(3-(5-chloro-2-fluorophenyl)-2,2-difluoro-3-hydroxypropyl)-2-fluorobenzamide] was tested, and the IC50 [1, 3] was 1.7 nM and the IC50 [2, 5] was 0.3 nM.

`[2H]C([2H])([2H])OC(c1ccc(F)cc1)C(F)(F)CNC(=O)c1c(C)ccc(-c2ccn3nc(N)nc3c2)c1F` (single isomer, unassigned) [Example 235, 3-(2-amino-[1,2,4]triazolo[1,5-a]pyridin-7-yl)-N-(2,2-difluoro-3-(4-fluorophenyl)-3-(methoxy-d3)propyl)-2-fluoro-6-methylbenzamide] gave an IC50 [1, 3] of 4.3 nM and an IC50 [2, 4] of 0.6 nM.

`Nc1nc2cc(-c3ccc(Cl)c(C(=O)NCC(F)(F)C(O)c4ccc(F)cc4F)c3F)ccn2n1` (single isomer, unassigned) [Example 178, 3-(2-amino-[1,2,4]triazolo[1,5-a]pyridin-7-yl)-6-chloro-N-(3-(2,4-difluorophenyl)-2,2-difluoro-3-hydroxypropyl)-2-fluorobenzamide] was tested, and the IC50 [1, 3] was 0.9 nM and the IC50 [2, 5] was 22 nM.

`COC(=O)c1ccc(CCCNC(=O)c2c(Cl)ccc(-c3ccn4nc(N)nc4c3)c2F)cc1` [Example 273, methyl 4-(3-(3-(2-amino-[1,2,4]triazolo[1,5-a]pyridin-7-yl)-6-chloro-2-fluorobenzamido)propyl)benzoate] showed an IC50 [1, 3] of 3.9 nM and an IC50 [2, 4] of 37 nM.

For `Cc1ccc(-c2ccn3nc(N)nc3c2)c(F)c1C(=O)NCC[C@H](O)c1ccc(Cl)cc1` [Example 151, (S)-3-(2-amino-[1,2,4]triazolo[1,5-a]pyridin-7-yl)-N-(3-(4-chlorophenyl)-3-hydroxypropyl)-2-fluoro-6-methylbenzamide], the IC50 [1, 3] was 2.8 nM, the IC50 [1, 6] was 3.5 nM and the IC50 [2, 4] was 0.8 nM. For the same compound, the IC50 [2, 7] was 0.8 nM.

Work on `Nc1nc2cc(-c3ccc(Cl)c(C(=O)NCC(F)(F)C(O)c4cccc(Cl)n4)c3F)ccn2n1` (single isomer, unassigned) [Example 263, 3-(2-amino-[1,2,4]triazolo[1,5-a]pyridin-7-yl)-6-chloro-N-(3-(6-chloropyridin-2-yl)-2,2-difluoro-3-hydroxypropyl)-2-fluorobenzamide] yielded an IC50 [1, 3] of 21 nM and an IC50 [2, 5] of 48 nM.

`Nc1nc2cc(-c3ccc(Cl)c(C(=O)NCC(F)(F)C(O)c4cccc(F)c4F)c3F)ccn2n1` (single isomer, unassigned) [Example 167, 3-(2-amino-[1,2,4]triazolo[1,5-a]pyridin-7-yl)-6-chloro-N-(3-(2,3-difluorophenyl)-2,2-difluoro-3-hydroxypropyl)-2-fluorobenzamide] was tested, and the IC50 [1, 3] was 15 nM and the IC50 [2, 5] was 7.8 nM.

In the case of `Cc1ccc(-c2ccn3nc(N)nc3c2)c(F)c1C(=O)NCCC(C)(F)c1ccc(Cl)cc1` (centres unmarked) [Example 228, 3-(2-amino-[1,2,4]triazolo[1,5-a]pyridin-7-yl)-N-(3-(4-chlorophenyl)-3-fluorobutyl)-2-fluoro-6-methylbenzamide], the IC50 [1, 3] is reported as 0.9 nM and the IC50 [2, 4] is reported as 1 nM.

Compound `Nc1nc2cc(-c3ccc(Cl)c(C(=O)NCC(F)(F)C(O)c4cccc(Cl)c4F)c3F)ccn2n1` (single isomer, unassigned) [Example 171, 3-(2-amino-[1,2,4]triazolo[1,5-a]pyridin-7-yl)-6-chloro-N-(3-(3-chloro-2-fluorophenyl)-2,2-difluoro-3-hydroxypropyl)-2-fluorobenzamide] has an IC50 [1, 3] of 1.6 nM and an IC50 [2, 5] of 10 nM.

With `Cc1ccc(-c2ccn3nc(N)nc3c2)c(F)c1C(=O)NCC(F)(F)Cc1ccc(F)cc1` [Example 208, 3-(2-amino-[1,2,4]triazolo[1,5-a]pyridin-7-yl)-N-(2,2-difluoro-3-(4-fluorophenyl)propyl)-2-fluoro-6-methylbenzamide] the IC50 [1, 3] was 2.6 nM and the IC50 [2, 4] was 0.2 nM.

`[2H]C([2H])([2H])OC(c1ccc(F)cc1)C(F)(F)CNC(=O)c1c(C)ccc(-c2ccn3nc(N)nc3c2)c1F` (single isomer, unassigned) [Example 236, 3-(2-amino-[1,2,4]triazolo[1,5-a]pyridin-7-yl)-N-(2,2-difluoro-3-(4-fluorophenyl)-3-(methoxy-d3)propyl)-2-fluoro-6-methylbenzamide] was tested, and the IC50 [1, 3] was 3.4 nM and the IC50 [2, 5] was 0.9 nM.

`Cc1ccc(-c2ccn3nc(N)nc3c2)c(F)c1C(=O)NCC(F)(F)C(O)c1ccnc(C(F)(F)F)c1` (single isomer, unassigned) [Example 261, 3-(2-amino-[1,2,4]triazolo[1,5-a]pyridin-7-yl)-N-(2,2-difluoro-3-hydroxy-3-(2-(trifluoromethyl)pyridin-4-yl)propyl)-2-fluoro-6-methylbenzamide] was tested, and the IC50 [1, 3] was 40 nM and the IC50 [2, 5] was 79 nM.

With `Cc1ccc(-c2ccn3nc(N)nc3c2)c(F)c1C(=O)NCC(F)(F)C(OP(=O)(O)O)c1ccc(F)cc1` (racemic) [Example 161, 3-(3-(2-amino-[1,2,4]triazolo[1,5-a]pyridin-7-yl)-2-fluoro-6-methylbenzamido)-2,2-difluoro-1-(4-fluorophenyl)propyl dihydrogen phosphate, racemate] the IC50 [1, 3] was > 15000 nM and the IC50 [2, 4] was 135 nM.

`Cc1ccc(-c2ccn3nc(N)nc3c2)c(F)c1C(=O)NCCC(O)c1cccc(C#N)c1` (centres unmarked) [Example 140, 3-{2-amino-[1,2,4]triazolo[1,5-a]pyridin-7-yl}-N-[3-(3-cyanophenyl)-3-hydroxypropyl]-2-fluoro-6-methylbenzamide] gave an IC50 [1, 3] of 0.6 nM and an IC50 [2, 4] of 13 nM.

With `[2H]C([2H])([2H])c1ccc(-c2ccn3nc(N)nc3c2)c(F)c1C(=O)NCC(F)(F)C(O)(c1ccc(F)cc1)C([2H])([2H])[2H]` (single isomer, unassigned) [Example 243, 3-(2-amino-[1,2,4]triazolo[1,5-a]pyridin-7-yl)-N-(2,2-difluoro-3-(4-fluorophenyl)-3-hydroxybutyl-4,4,4-d3)-2-fluoro-6-(methyl-d3)benzamide] the IC50 [1, 3] was 4.7 nM and the IC50 [2, 4] was 1.2 nM.

`Nc1nc2cc(-c3ccc(Cl)c(C(=O)NCCC(O)c4ccc(Cl)cn4)c3F)ccn2n1` (centres unmarked) [Example 81, 3-(2-amino-[1,2,4]triazolo[1,5-a]pyridin-7-yl)-6-chloro-N-(3-(5-chloropyridin-2-yl)-3-hydroxypropyl)-2-fluorobenzamide] was tested, and the IC50 [1, 3] was 24 nM and the IC50 [2, 4] was 38 nM.

With `Nc1nc2cc(-c3ccc(Cl)c(C(=O)NCCC(O)c4ccc(F)cc4)c3F)ccn2n1` (centres unmarked) [Example 78, 3-(2-amino-[1,2,4]triazolo[1,5-a]pyridin-7-yl)-6-chloro-2-fluoro-N-(3-(4-fluorophenyl)-3-hydroxypropyl)benzamide] the IC50 [1, 3] was 19 nM, the IC50 [1, 6] was 19 nM and the IC50 [2, 4] was 9.9 nM. The IC50 [2, 7] was 9.9 nM.

Work on `COc1ncc(-c2ccn3nc(N)nc3c2)cc1C(=O)NCCC(O)c1ccc(F)cc1` (centres unmarked) [Example 78] yielded an IC50 ([1]; Table 23, representative compounds from WO2018/148626, read-out: RIPK1 IC50) of 120 nM and an IC50 ([2]; Homo sapiens, Table 23, representative compounds from WO2018/148626, read-out: pMLKL IC50) of 146 nM.

For `Cc1ccc(C(O)C(F)(F)CNC(=O)c2c(Cl)ccc(-c3ccn4nc(N)nc4c3)c2F)c(F)c1` (centres unmarked) [Example 182, 3-(2-amino-[1,2,4]triazolo[1,5-a]pyridin-7-yl)-6-chloro-N-(2,2-difluoro-3-(2-fluoro-4-methylphenyl)-3-hydroxypropyl)-2-fluorobenzamide], the IC50 [1, 3] was 1.2 nM and the IC50 [2, 5] was 2.9 nM.

In the case of `Cc1ccc(C(O)C(F)(F)CNC(=O)c2c(Cl)ccc(-c3ccn4nc(N)nc4c3)c2F)c(F)c1` (centres unmarked) [Example 183, 3-(2-amino-[1,2,4]triazolo[1,5-a]pyridin-7-yl)-6-chloro-N-(2,2-difluoro-3-(2-fluoro-4-methylphenyl)-3-hydroxypropyl)-2-fluorobenzamide], the IC50 [1, 3] is reported as 0.4 nM and the IC50 [2, 5] is reported as 1 nM.
